Legend:
[1] = tested on: IKKβ-mediated p65 phosphorylation (Ser536) in U2OS cells; experiment: TNFα-stimulated p65 (Ser536) phosphorylation, Western blotting; type: cell-based; conditions: Homo sapiens, 1 h pre-treatment, TNFα 30 min
Experimental: (§1) To assess the translation of the biochemical potencies and selectivities described above to a cell-based setting, exemplars from the series were initially examined for inhibitory action against IKKs in the U2OS osteosarcoma cell line. This cell type was utilised to represent cells with a proliferative phenotype dependent on the constitutively activated IKKα-mediated non-canonical NF-κB pathway. Compounds 5r [SU1261]
(§2) U2OS cells were cultured in McCoy’s 5A Modified Medium, and PC-3M-Luc-C6 prostate cancer cells were cultured in Minimum Essential Medium (MEM), each containing 10% (v/v) Foetal Calf Serum (FCS), L-glutamine ([…]), and penicillin/streptomycin (250 units/mL; 100 μg/mL) and incubated in a humidified atmosphere at 37 °C with 5% (v/v) CO2. Cells were grown to near confluence and prior to experimentation rendered quiescent by serum deprivation for 24 h.
(§3) To examine the potential impact of compounds on canonical NF-κB signalling, cells were then exposed to vehicle (DMSO; 0.05% (v/v)) or increasing concentrations of compounds (0.01–30 µM) for 1 h prior to treatment with TNF⍺ (20 ng/mL) for 30 min. Whole-cell extracts were prepared, and the status of IκB⍺, phospho-p65 (Ser536), p65, and phospho-p105 ([…]) was also assessed by Western blotting.
(§4) Each figure/panel of Western blotting data represents one of at least three separate experiments. Western blots were scanned and imaged using Adobe Photoshop 5.0.2 software and polypeptide bands were semi-quantified by scanning densitometry using the Scion Image program. Data were normalised to fold expression/inhibition relative to ‘agonist plus vehicle’ treatment and expressed as mean ± s.e.m. IC50 values were established by curve fitting using the Hill equation.
(§5) Figure 11 Compound 5r [SU1261] inhibits FCS-stimulated p100 phosphorylation (Ser866/870) with no impact on TNFα-stimulated IkBα degradation and limited impact on phosphorylation of p65 (Ser536) in U2OS osteosarcoma cells. […] (0.3–30 µM) for 1 h prior to treatment with FCS (10% (v/v)) for 4 h, and phospho-p100 (Ser866/870) was assessed by Western blotting. […]

CaMKIIβ(h) = CaMKIIβ(h) (Homo sapiens, UniProt Q13554); experiment: kinase panel; type: biochemical
Summary of the method: (§6)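 % inhibition read-out; kinome panel of 231 kinases; one analogue run on a selected 98-kinase subset only.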

IRAK1(h) = IRAK1(h) (Homo sapiens, UniProt P51617); experiment: kinase panel; type: biochemical
Summary of the method: as §6

Abl(h) = Abl(h) (Homo sapiens, UniProt P00519); experiment: kinase panel; type: biochemical
Summary of the method: as §6

ACK1(h) = ACK1(h) (Homo sapiens, UniProt Q07912); experiment: kinase panel; type: biochemical
Summary of the method: as §6

MAPKAP-K2(h) = MAPKAP-K2(h) (Homo sapiens, UniProt P49137); experiment: kinase panel; type: biochemical
Summary of the method: as §6

MAPK1(h) = MAPK1(h) (Homo sapiens, UniProt P27361); experiment: kinase panel; type: biochemical
Summary of the method: as §6

Fms(h) = Fms(h) (Homo sapiens, UniProt P07333); experiment: kinase panel; type: biochemical
Summary of the method: as §6

[2] = tested on: IKKα-mediated p100 phosphorylation (Ser866/870) in U2OS cells; experiment: FCS-stimulated p100 phosphorylation (Ser866/870), Western blotting; type: cell-based; conditions: Homo sapiens, 1 h pre-treatment, FCS 10% 4 h
Experimental: as §1, §2
For examination of potential effects of compound on non-canonical NF-κB signalling, cells were exposed to vehicle (DMSO; 0.03–0.05% (v/v)) or increasing concentrations of compounds (0.01–30 µM) for 1 h prior to treatment with FCS (10% (v/v); for U2OS cells) or LTα1β2 (20 ng/mL; for PC-3M cells) for 4 h. The status of p-p100 (Ser 866/870) in whole-cell extracts prepared from 12-well plates was assessed by Western blotting, as described in McKenzie et al.. […] Thereafter, p52 and RelB status in crude nuclear extracts normalised for protein amounts were assessed by Western blotting.
as §4, with “IC50 values were established by curve fitting using the Hill equation.” left out

[3] = tested on: IKKβ-mediated IκBα degradation in U2OS cells; experiment: TNFα-stimulated IκBα degradation, Western blotting; type: cell-based; conditions: for effect on TNFα-stimulated IκBα degradation: 0.3–30 µM
Experimental: as §1, §2, §3, §4, §5

Chain of MAPKAP-K2(h) (P49137 whole entry): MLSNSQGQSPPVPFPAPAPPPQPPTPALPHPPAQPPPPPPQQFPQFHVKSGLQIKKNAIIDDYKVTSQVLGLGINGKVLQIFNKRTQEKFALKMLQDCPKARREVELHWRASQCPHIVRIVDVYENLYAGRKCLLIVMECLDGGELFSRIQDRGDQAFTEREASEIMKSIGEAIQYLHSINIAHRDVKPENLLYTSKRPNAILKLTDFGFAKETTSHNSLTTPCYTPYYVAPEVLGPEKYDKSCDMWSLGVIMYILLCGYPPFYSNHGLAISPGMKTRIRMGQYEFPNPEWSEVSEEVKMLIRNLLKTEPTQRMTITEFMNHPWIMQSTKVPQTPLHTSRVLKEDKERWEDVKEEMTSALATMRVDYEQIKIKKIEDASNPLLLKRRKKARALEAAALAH
Chain of Abl(h) (P00519 whole entry): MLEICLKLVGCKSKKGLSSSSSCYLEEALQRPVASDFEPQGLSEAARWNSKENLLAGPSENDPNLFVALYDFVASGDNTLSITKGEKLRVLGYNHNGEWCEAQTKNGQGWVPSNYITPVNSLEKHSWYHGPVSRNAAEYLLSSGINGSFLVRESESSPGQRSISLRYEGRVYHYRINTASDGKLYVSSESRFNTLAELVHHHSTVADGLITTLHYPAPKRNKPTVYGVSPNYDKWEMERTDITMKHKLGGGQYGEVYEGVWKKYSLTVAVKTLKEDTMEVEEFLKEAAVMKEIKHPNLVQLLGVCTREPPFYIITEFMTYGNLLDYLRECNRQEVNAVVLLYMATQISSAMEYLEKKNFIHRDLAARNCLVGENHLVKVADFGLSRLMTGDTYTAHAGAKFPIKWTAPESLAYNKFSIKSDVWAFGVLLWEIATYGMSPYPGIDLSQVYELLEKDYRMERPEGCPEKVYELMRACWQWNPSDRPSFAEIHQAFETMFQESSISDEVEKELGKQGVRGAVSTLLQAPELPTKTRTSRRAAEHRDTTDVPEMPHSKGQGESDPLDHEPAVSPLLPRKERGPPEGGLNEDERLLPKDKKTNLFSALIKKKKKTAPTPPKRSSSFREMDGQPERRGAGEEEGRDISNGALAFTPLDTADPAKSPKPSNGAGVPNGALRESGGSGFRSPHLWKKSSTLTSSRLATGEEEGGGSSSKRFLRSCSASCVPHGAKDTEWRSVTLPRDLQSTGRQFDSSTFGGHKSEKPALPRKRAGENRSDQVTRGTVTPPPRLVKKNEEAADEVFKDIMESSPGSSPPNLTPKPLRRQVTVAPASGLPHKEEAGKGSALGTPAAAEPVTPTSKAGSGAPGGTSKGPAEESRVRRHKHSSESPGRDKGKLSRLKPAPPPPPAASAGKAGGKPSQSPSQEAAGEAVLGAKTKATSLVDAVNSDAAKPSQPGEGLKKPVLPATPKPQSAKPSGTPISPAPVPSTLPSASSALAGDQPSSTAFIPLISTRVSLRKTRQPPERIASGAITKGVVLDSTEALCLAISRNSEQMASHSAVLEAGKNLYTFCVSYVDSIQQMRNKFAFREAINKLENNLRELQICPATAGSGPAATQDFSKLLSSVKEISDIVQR
Chain of CaMKIIβ(h) (Q13554 whole entry): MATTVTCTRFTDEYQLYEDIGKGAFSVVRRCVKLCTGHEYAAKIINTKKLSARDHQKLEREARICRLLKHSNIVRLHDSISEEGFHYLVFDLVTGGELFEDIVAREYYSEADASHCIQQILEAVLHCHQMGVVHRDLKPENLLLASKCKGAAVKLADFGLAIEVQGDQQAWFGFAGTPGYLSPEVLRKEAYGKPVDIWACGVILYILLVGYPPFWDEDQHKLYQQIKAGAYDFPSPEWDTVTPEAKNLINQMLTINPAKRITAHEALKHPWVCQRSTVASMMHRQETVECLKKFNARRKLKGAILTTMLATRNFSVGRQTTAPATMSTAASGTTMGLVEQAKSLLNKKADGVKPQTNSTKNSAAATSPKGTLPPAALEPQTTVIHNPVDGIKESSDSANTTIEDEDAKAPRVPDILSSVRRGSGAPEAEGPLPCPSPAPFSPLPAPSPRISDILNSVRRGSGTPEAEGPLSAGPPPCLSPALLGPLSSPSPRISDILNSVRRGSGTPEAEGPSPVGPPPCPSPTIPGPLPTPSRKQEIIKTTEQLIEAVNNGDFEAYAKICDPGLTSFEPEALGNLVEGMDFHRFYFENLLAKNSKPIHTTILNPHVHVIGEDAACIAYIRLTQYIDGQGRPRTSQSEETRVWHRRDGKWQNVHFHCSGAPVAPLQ
Chain of MAPK1(h) (P27361 whole entry): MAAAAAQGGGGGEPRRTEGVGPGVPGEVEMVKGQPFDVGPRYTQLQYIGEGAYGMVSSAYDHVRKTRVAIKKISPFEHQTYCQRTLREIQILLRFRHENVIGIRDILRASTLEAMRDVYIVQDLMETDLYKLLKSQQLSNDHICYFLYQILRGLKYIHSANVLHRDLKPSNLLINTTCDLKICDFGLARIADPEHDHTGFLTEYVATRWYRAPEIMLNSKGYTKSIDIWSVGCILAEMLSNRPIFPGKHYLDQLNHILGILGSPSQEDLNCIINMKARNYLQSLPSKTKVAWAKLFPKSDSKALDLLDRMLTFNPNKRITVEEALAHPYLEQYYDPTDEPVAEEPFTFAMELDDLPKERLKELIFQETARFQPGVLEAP
Chain of Fms(h) (P07333 20-972): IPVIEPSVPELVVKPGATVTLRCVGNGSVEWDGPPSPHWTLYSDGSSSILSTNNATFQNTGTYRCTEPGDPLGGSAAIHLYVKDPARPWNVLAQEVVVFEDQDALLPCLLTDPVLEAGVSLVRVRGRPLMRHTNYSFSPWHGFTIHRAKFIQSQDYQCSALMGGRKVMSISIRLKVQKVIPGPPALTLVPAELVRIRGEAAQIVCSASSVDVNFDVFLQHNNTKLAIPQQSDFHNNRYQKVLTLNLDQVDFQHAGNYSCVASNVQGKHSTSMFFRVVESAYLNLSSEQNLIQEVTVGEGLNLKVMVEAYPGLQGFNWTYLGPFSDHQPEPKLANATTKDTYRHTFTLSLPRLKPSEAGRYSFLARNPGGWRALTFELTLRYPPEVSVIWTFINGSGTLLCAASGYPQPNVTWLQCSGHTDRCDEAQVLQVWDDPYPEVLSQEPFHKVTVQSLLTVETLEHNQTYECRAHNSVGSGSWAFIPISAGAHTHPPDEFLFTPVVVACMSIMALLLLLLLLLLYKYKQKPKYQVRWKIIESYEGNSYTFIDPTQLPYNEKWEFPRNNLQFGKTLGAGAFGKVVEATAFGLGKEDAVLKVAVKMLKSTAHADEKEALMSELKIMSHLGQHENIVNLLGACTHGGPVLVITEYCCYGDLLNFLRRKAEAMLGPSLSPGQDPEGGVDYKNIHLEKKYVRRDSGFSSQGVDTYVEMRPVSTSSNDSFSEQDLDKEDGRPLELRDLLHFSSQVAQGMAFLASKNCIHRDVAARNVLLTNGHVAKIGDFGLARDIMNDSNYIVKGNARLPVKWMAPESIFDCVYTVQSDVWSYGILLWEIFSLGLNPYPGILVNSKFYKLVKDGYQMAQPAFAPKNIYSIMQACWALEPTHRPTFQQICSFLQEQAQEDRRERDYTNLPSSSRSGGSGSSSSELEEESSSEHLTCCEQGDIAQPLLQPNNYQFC
Chain of IRAK1(h) (P51617 whole entry): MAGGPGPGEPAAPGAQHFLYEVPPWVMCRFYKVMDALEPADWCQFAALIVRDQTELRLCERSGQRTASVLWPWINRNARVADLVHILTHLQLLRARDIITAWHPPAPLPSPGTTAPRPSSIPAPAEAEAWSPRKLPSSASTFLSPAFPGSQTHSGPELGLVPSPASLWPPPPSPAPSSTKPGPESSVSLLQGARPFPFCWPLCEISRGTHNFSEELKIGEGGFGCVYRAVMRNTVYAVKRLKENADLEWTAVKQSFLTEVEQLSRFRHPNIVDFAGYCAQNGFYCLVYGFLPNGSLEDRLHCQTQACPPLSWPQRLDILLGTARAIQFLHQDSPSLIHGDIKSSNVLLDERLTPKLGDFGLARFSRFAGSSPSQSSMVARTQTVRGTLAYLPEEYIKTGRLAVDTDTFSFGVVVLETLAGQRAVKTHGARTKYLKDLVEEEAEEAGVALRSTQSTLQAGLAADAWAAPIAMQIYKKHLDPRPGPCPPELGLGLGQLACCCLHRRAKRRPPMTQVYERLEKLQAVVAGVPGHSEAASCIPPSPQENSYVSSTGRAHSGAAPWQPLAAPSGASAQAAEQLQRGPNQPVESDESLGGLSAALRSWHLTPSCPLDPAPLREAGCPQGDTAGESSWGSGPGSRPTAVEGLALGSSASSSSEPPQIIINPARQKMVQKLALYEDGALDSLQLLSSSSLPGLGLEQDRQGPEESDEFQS

IC50 [1] [µM]	inhibition at 1 µM (CaMKIIβ(h)) [%]	inhibition at 1 µM (IRAK1(h)) [%]	inhibition at 1 µM (Abl(h)) [%]	inhibition at 1 µM (ACK1(h)) [%]	inhibition at 1 µM (MAPKAP-K2(h)) [%]	inhibition at 1 µM (MAPK1(h)) [%]	inhibition at 1 µM (Fms(h)) [%]	IC50 [2] [nM]	IC50 ([3]; Homo sapiens, 1 h pre-treatment, TNFα 30 min) [nM]	SMILES	effect on TNFα-stimulated IκBα degradation [3]
> 30	12	37	15	17	1	18	10	8750		Nc1n[nH]c2ccc(-c3ccnc4[nH]c(-c5ccnc(OCc6ccccc6)c5)cc34)cc12 [Compound 6g [SU1349]]	no significant inhibition
0.3	74	89	86	83	38	46	91	690	620	Nc1n[nH]c2ccc(-c3ccnc4[nH]c(-c5ccccc5)cc34)cc12 [Compound 4]	
5.64	47	42	44	41	-3	-4	58	2870		Nc1n[nH]c2ccc(-c3ccnc4[nH]c(-c5cccc(OCc6ccccc6)c5)cc34)cc12 [Compound 5r [SU1261]]	did not impact

Source: paper PMC11314561, “Design and Synthesis of Novel Aminoindazole-pyrrolo[2,3-b]pyridine Inhibitors of IKKα That Selectively Perturb Cellular Non-Canonical NF-κB Signalling” (Molecules, 2024)
